Reference: ChEMBL document CHEMBL4483862, “Open-source discovery of chemical leads for next-generation chemoprotective antimalarials” (2018)

Tested on: Plasmodium berghei
Assay: Luciferase/luciferin-expressing antifolate-resistant parasites were used to infect a culture of HepG2 cells that were pre-incubated with compounds. Infected hepatocytes emit light due to the luciferase reaction. Assay results are presented as the percent inhibition of light emission compared to control. […]
Assay type: functional
Details: sporozoite; for IC90: read-out: LUCIFERASE INFECTION ASSAY - IC90

Row | Compound | IC90 | other results
1 | Cc1ccc2[nH]c3c(c2c1)CCCC3NCCCN(C)C (centres undefined) | > 11.5 µM | IC50 (HEPG2TOX_HILL_SLOPE 41.7, HEPG2TOX_R_SQUARED 0.689, PBLUC_HILL_SLOPE 2.08, PBLUC_R_SQUARED 0.555, read-out: LUCIFERASE INFECTION ASSAY - IC50): 4.94 µM
2 | O=C1C=CC(=O)N1Cc1cccs1 | 7.49 µM | IC50 (HEPG2TOX_HILL_SLOPE 35.1, HEPG2TOX_R_SQUARED 0.828, PBLUC_HILL_SLOPE 12.7, PBLUC_R_SQUARED 0.168, read-out: LUCIFERASE INFECTION ASSAY - IC50): 6.3 µM
3 | Clc1ccc(Cl)c(-c2ccc(CNCCN3CCNCC3)o2)c1 | 7.07 µM | IC50 (HEPG2TOX_HILL_SLOPE 36.7, HEPG2TOX_R_SQUARED 0.263, PBLUC_HILL_SLOPE 4.39, PBLUC_R_SQUARED 0.663, read-out: LUCIFERASE INFECTION ASSAY - IC50): 4.28 µM
4 | C=C(C)CN(CC)c1nc(N)c(C#N)c(C(C#N)Cc2ccc(C)cc2)c1C#N (centres undefined) | 8.18 µM | IC50 (HEPG2TOX_HILL_SLOPE 73.4, HEPG2TOX_R_SQUARED 0.557, PBLUC_HILL_SLOPE 3.82, PBLUC_R_SQUARED 0.311, read-out: LUCIFERASE INFECTION ASSAY - IC50): 4.6 µM
5 | O=C(Nc1ccc(Cl)cc1)Nc1ccc2c(c1)no[n+]2[O-] | 8.03 µM | IC50 (HEPG2TOX_HILL_SLOPE 58.7, HEPG2TOX_R_SQUARED 0.822, PBLUC_HILL_SLOPE 3.98, PBLUC_R_SQUARED 0.47, read-out: LUCIFERASE INFECTION ASSAY - IC50): 4.62 µM
6 | N#Cc1ccc(NC(=O)Cn2ncc(Cl)c(Cl)c2=O)cc1 | 5.23 µM | IC50 (HEPG2TOX_HILL_SLOPE 73.2, HEPG2TOX_R_SQUARED 0.451, PBLUC_HILL_SLOPE 8.64, PBLUC_R_SQUARED 0.375, read-out: LUCIFERASE INFECTION ASSAY - IC50): 4.06 µM
7 | N#Cc1ccc(C(=O)Nc2ccc(Br)c(C(F)(F)F)c2)cc1 | 9.89 µM | IC50 (HEPG2TOX_HILL_SLOPE 28, HEPG2TOX_R_SQUARED 0.813, PBLUC_HILL_SLOPE 18.1, PBLUC_R_SQUARED 0.807, read-out: LUCIFERASE INFECTION ASSAY - IC50): 8.76 µM
8 | O=C(Nc1ccc(Cl)cc1)n1ccc(/C=C/c2ncc(C(F)(F)F)cc2Cl)n1 | > 7.72 µM | IC50 (HEPG2TOX_HILL_SLOPE 28.5, HEPG2TOX_R_SQUARED 0.883, PBLUC_HILL_SLOPE 15.5, PBLUC_R_SQUARED 0.352, read-out: LUCIFERASE INFECTION ASSAY - IC50): 7.23 µM
9 | CCC1CCCCN1C(=O)CSC(=Nc1ccccc1F)C(C#N)c1nc2ccccc2s1 (centres undefined) | 9.73 µM | IC50 (HEPG2TOX_HILL_SLOPE 76.7, HEPG2TOX_R_SQUARED 0.475, PBLUC_HILL_SLOPE 22.7, PBLUC_R_SQUARED 0.0851, read-out: LUCIFERASE INFECTION ASSAY - IC50): 8.83 µM
10 | CCOC(=O)c1c(C)[nH]c(C(=O)C(C)OC(=O)c2ccc(S(=O)(=O)N(C)c3ccccc3OC)cc2)c1C (centres undefined) | > 10 µM | IC50 (HEPG2TOX_HILL_SLOPE 113, HEPG2TOX_R_SQUARED 0.62, read-out: LUCIFERASE INFECTION ASSAY - IC50): > 10 µM
11 | Cc1cccc(C(=O)NCC(=O)Nc2ncc(C)s2)c1 | > 10 µM | IC50 (HEPG2TOX_HILL_SLOPE 123, HEPG2TOX_R_SQUARED 0.298, PBLUC_HILL_SLOPE 16, PBLUC_R_SQUARED 0.209, read-out: LUCIFERASE INFECTION ASSAY - IC50): 9.16 µM
12 | O=C(Cn1ncc(Cl)c(Cl)c1=O)N(CCc1ccccc1)Cc1ccccc1 | 6.37 µM | IC50 (HEPG2TOX_HILL_SLOPE 33, HEPG2TOX_R_SQUARED 0.912, PBLUC_HILL_SLOPE 70.8, PBLUC_R_SQUARED 0.26, read-out: LUCIFERASE INFECTION ASSAY - IC50): 6.18 µM
13 | Clc1nc2ccc3nsnc3c2nc1Cl | 3.65 µM | IC50 (HEPG2TOX_HILL_SLOPE 109, HEPG2TOX_R_SQUARED 0.525, PBLUC_HILL_SLOPE 3.55, PBLUC_R_SQUARED 0.399, read-out: LUCIFERASE INFECTION ASSAY - IC50): 1.96 µM
14 | Cc1ccc(C(CN2CCOCC2)NC(=O)c2occc2-c2ccccc2)cc1 (centres undefined) | > 10 µM | IC50 (HEPG2TOX_HILL_SLOPE 140, HEPG2TOX_R_SQUARED 0.302, PBLUC_HILL_SLOPE 0.784, PBLUC_R_SQUARED 0.306, read-out: LUCIFERASE INFECTION ASSAY - IC50): 8.27 µM
15 | CCn1nnnc1Sc1nc(C)nc2sc3c(c12)CCC3 | 3.73 µM | IC50 (HEPG2TOX_HILL_SLOPE 68.5, HEPG2TOX_R_SQUARED 0.626, PBLUC_HILL_SLOPE 11, PBLUC_R_SQUARED 0.226, read-out: LUCIFERASE INFECTION ASSAY - IC50): 3.05 µM
16 | O=C(CN1CC=C(c2c[nH]c3ccccc23)CC1)Nc1ccccc1OC(F)F | > 10 µM | IC50 (HEPG2TOX_HILL_SLOPE 99.6, HEPG2TOX_R_SQUARED 0.512, PBLUC_HILL_SLOPE 10, PBLUC_R_SQUARED 0.0817, read-out: LUCIFERASE INFECTION ASSAY - IC50): > 10 µM

Row | Compound | IC90 | other results
17 | COc1ccc(-c2nc3ccc(NC(=O)Nc4ccc(C)cc4)cn3n2)cc1 | 7.53 µM | IC50 (HEPG2TOX_HILL_SLOPE 50, HEPG2TOX_R_SQUARED 0.291, PBLUC_HILL_SLOPE 5.1, PBLUC_R_SQUARED 0.322, read-out: LUCIFERASE INFECTION ASSAY - IC50): 4.9 µM
18 | CC1CCC/C(=C(/C#N)c2nc(-c3ccccc3O)cs2)C1 (centres undefined) | 5.31 µM | IC50 (HEPG2TOX_HILL_SLOPE 34.1, 11.7, HEPG2TOX_R_SQUARED 0.352, 0.945, PBLUC_HILL_SLOPE 13.4, PBLUC_R_SQUARED 0.235, read-out: LUCIFERASE INFECTION ASSAY - IC50): 4.51 µM
19 | CCCCSc1scc(-c2ccc(Cl)c(Cl)c2)c1C#N | > 9.64 µM | IC50 (HEPG2TOX_HILL_SLOPE 94.8, HEPG2TOX_R_SQUARED 0.896, read-out: LUCIFERASE INFECTION ASSAY - IC50): > 9.64 µM
20 | c1ccc(Oc2ccccc2-c2cnc3c(NCCc4cccnc4)nccn23)cc1 | 7.62 µM | IC50 (HEPG2TOX_HILL_SLOPE 47.6, HEPG2TOX_R_SQUARED 0.873, PBLUC_HILL_SLOPE 7.25, PBLUC_R_SQUARED 0.536, read-out: LUCIFERASE INFECTION ASSAY - IC50): 5.63 µM
21 | CCN1C(=O)N(Cc2ccccn2)C(=O)C12CCN(Cc1ccc3c(c1)Cc1ccccc1-3)CC2 | 6.49 µM | IC50 (HEPG2TOX_HILL_SLOPE 46.6, HEPG2TOX_R_SQUARED 0.935, PBLUC_HILL_SLOPE 4.5, PBLUC_R_SQUARED 0.25, read-out: LUCIFERASE INFECTION ASSAY - IC50): 3.98 µM
22 | O=C(Cn1ncc(Cl)c(Cl)c1=O)Nc1ccc(F)c(F)c1F | 9.46 µM | IC50 (HEPG2TOX_HILL_SLOPE 271, HEPG2TOX_R_SQUARED 0.59, PBLUC_HILL_SLOPE 12.5, PBLUC_R_SQUARED 0.106, read-out: LUCIFERASE INFECTION ASSAY - IC50): 7.93 µM
23 | COc1ccc(-c2cc(CN(C)c3ccc(S(=O)(=O)NC(C)(C)C)cc3[N+](=O)[O-])on2)cc1 | 4.2 µM | IC50 (HEPG2TOX_HILL_SLOPE 80.3, HEPG2TOX_R_SQUARED 0.674, PBLUC_HILL_SLOPE 12.7, PBLUC_R_SQUARED 0.427, read-out: LUCIFERASE INFECTION ASSAY - IC50): 3.54 µM
24 | CCN(CC)c1ccc(/C=C(\C#N)c2nc3c(s2)CC(C)CC3)cc1 (centres undefined) | > 10 µM | IC50 (HEPG2TOX_HILL_SLOPE 34.4, HEPG2TOX_R_SQUARED 0.353, PBLUC_HILL_SLOPE 1.55, PBLUC_R_SQUARED 0.645, read-out: LUCIFERASE INFECTION ASSAY - IC50): 4.58 µM
25 | O=C(NNc1ccccc1)c1cccs1 | 7.33 µM | IC50 (HEPG2TOX_HILL_SLOPE 91.6, HEPG2TOX_R_SQUARED 0.623, PBLUC_HILL_SLOPE 5.23, PBLUC_R_SQUARED 0.266, read-out: LUCIFERASE INFECTION ASSAY - IC50): 4.82 µM
26 | COc1ccc(CCN2C(=O)N(CC(C)C)C(=O)C23CCN(C2CCc4ccccc4C2)CC3)cc1 (centres undefined) | 2.72 µM | IC50 (HEPG2TOX_HILL_SLOPE 52.5, HEPG2TOX_R_SQUARED 0.896, PBLUC_HILL_SLOPE 13.1, PBLUC_R_SQUARED 0.487, read-out: LUCIFERASE INFECTION ASSAY - IC50): 2.3 µM
27 | Cc1ccc(C(CCNCc2ccc(F)cc2)c2ccco2)cc1 (centres undefined) | 0.384 µM | IC50 (HEPG2TOX_HILL_SLOPE 46.4, HEPG2TOX_R_SQUARED 0.442, PBLUC_HILL_SLOPE 99.4, PBLUC_R_SQUARED 0.619, read-out: LUCIFERASE INFECTION ASSAY - IC50): 0.376 µM
28 | COC(=O)c1ccc(/C=C/C(=O)c2ccccc2F)cc1 | > 10 µM | IC50 (HEPG2TOX_HILL_SLOPE 28.5, HEPG2TOX_R_SQUARED 0.619, read-out: LUCIFERASE INFECTION ASSAY - IC50): > 10 µM
29 | Cc1cccc(C=C(C(=O)NC(C)c2ccccc2)C(=O)NC(C)c2ccccc2)c1 (centres undefined) | 8.3 µM | IC50 (HEPG2TOX_HILL_SLOPE 105, HEPG2TOX_R_SQUARED 0.565, PBLUC_HILL_SLOPE 4.68, PBLUC_R_SQUARED 0.0675, read-out: LUCIFERASE INFECTION ASSAY - IC50): 5.19 µM
30 | COc1ccc(CNCCC(c2ccc(F)cc2)c2ccco2)cc1 (centres undefined) | 1.22 µM | IC50 (HEPG2TOX_HILL_SLOPE 73.6, HEPG2TOX_R_SQUARED 0.521, PBLUC_HILL_SLOPE 15.7, PBLUC_R_SQUARED 0.627, read-out: LUCIFERASE INFECTION ASSAY - IC50): 1.06 µM
31 | COc1ccc2c(C)nc(Nc3nc(O)c4ccccc4n3)nc2c1 | 3.1 µM | IC50 (HEPG2TOX_HILL_SLOPE 241, HEPG2TOX_R_SQUARED 0.475, PBLUC_HILL_SLOPE 24.4, PBLUC_R_SQUARED 0.363, read-out: LUCIFERASE INFECTION ASSAY - IC50): 2.83 µM
32 | Cc1oc2c(c1C(=O)NCC1CCCO1)C(=O)c1ccccc1C2=O (centres undefined) | 0.328 µM | IC50 (HEPG2TOX_HILL_SLOPE 84.1, HEPG2TOX_R_SQUARED 0.355, PBLUC_HILL_SLOPE 3.6, PBLUC_R_SQUARED 0.607, read-out: LUCIFERASE INFECTION ASSAY - IC50): 0.178 µM
